The test system of data set [1] is GL261 cells. The experiment in a line: In vitro cytotoxicity against glioma cells GL261 (MTS assay), with or without X-ray irradiation. The data set is classed as cell-based, mouse. The method, then:
GL261 cells were seeded onto 96-well plates at a density of 2000 cells/well and treated with various concentrations of the dimethylamino Michael adduct of MCL (dimethylamino micheliolide, […]) for 24 hours to allow for sufficient cellular uptake and conversion to MCL before irradiation. The cells were irradiated with varying amounts of X-ray irradiation and then incubated for an additional 24 hours. The culture medium was exchanged with fresh medium and further incubated for an additional 48 hours. The cell viability was then detected by (3-(4,5-dimethylthiazol-2-yl)-5-(3-carboxymethoxyphenyl)-2-(4-sulfophenyl)-2H-tetrazolium) (MTS) assay (Promega, Madison, Wisconsin, United States of America).

Data set [2] relates to glioma GL261 tumor model. The experiment in a line: In vivo antitumor activity, glioma GL261 tumor model on wildtype C57BL/6 mice (irradiation and PD-L1 antibody combination). The method, then: The combination of DMAMCL, irradiation, and PD-L1 antibody was evaluated on the glioma GL261 tumor model on wildtype C57BL/6 mice. The treatment began 14 days after the inoculation of 2×10^6 GL261 cells. The mice were orally dosed with 50 mg/kg DMAMCL or PBS daily and irradiated with 2 Gy irradiation approximately 4 hrs after dosing, as applicable, for up to 12 days, starting when the tumors reached ˜150 mm^3-200 mm^3. One group of mice received two doses of 75 μg PD-L1 antibody on days 0 and 4. […] By the cessation of treatment, 3/5 tumors treated with this combination were barely palpable.

Data set [3] concerns glioma GL261 tumor model. The experiment in a line: In vivo antitumor activity, glioma GL261 tumor model on immunocompromised Rag2-/- C57BL/6 mice. The method, then: The combination of […] and irradiation was evaluated on the glioma GL261 tumor model on immunocompromised Rag2^-/- C57BL/6 mice. The mice were orally dosed with 50 mg/kg […] or PBS daily and irradiated with 4 Gy irradiation approximately 4 hrs after dosing, as applicable, for up to 7 days, starting when the tumors reached about […]. A Precision X-ray X-RAD 225 Image Guided Biologic Irradiator (Precision X-Ray Irradiation, North Branford, Connecticut, United States of America) was used for all animal studies. The instrument was set at 225 peak kilovoltage (kVp) and 13 milliampere (mA), with a 0.3 mm flat-board copper (Cu) filter installed before a 15-mm collimator. The irradiation was given in two successive fractions with incident angles of 0° and 180° for each mouse.

In the case of `CC1=C2CC[C@@](C)(O)[C@@H]2[C@H]2OC(=O)[C@@H](CN(C)C)[C@@H]2CC1` [DMAMCL, dimethylamino micheliolide], the “cytotoxicity (cell viability)” value was “significant cytotoxicity” in data set [1] (1 μM DMAMCL and X-ray irradiation of 8 Gy); “significant cytotoxicity” in data set [1] (10 μM DMAMCL and X-ray irradiation of 8 Gy). In data set [1] (DMAMCL monotherapy, doses up to 10 μM, no irradiation), the “toxicity (cell viability)” value is recorded as “little to no toxicity”. In addition, the tumor growth entry in data set [2] (DMAMCL 50 mg/kg oral daily plus 2 Gy irradiation plus 75 μg PD-L1 antibody on days 0 and 4, wildtype C57BL/6 mice) is “controlled and regressed tumor growth immediately after treatment”; in data set [2] (DMAMCL 50 mg/kg oral daily plus 2 Gy irradiation, up to 12 days, wildtype C57BL/6 mice), “suppressed tumor growth and ultimately led to tumor regression”; in data set [2] (DMAMCL alone, 50 mg/kg oral daily up to 12 days, wildtype C57BL/6 mice), “no effect on tumor growth”; in data set [3] (DMAMCL 50 mg/kg oral daily plus 4 Gy irradiation about 4 hrs after dosing, up to 7 days) it was “successfully controlled tumor growth”; in data set [3] (DMAMCL alone, 50 mg/kg oral daily up to 7 days) it was “initially suppressed tumor growth”. For the same compound, the “tumors barely palpable by the cessation of treatment” value in data set [2] (DMAMCL plus 2 Gy irradiation plus PD-L1 antibody, wildtype C57BL/6 mice) is on record as 3/5. Further, in data set [3] (DMAMCL alone, 50 mg/kg oral daily up to 7 days, final tumor size), the “tumor size compared to irradiation alone” value was “not significantly different in size”.

The values are drawn from patent publication US12048682B2, “Combination of micheliolide derivatives or nanoparticles with ionizing radiation and checkpoint inhibitors for cancer therapy” (The University of Chicago, priority 2018, dated 2024).
